System: HIV-IIIb
Test: Test A: Antiviral Assays in MT4 Cells
Format: cell-based
Details: Human immunodeficiency virus 1, IIIB, MT4, 120 h
Experimental: Test A: Antiviral Assays in MT4 Cells
For the antiviral assay utilizing MT-4 cells, 0.4 μL of […] test concentration of 3-fold serially diluted compound in DMSO was added to 40 μL of cell growth medium (RPMI 1640, 10% FBS, 1% penicillin/Streptomycin, 1% L-Glutamine, 1% HEPES) in each well of 384-well assay plates (10 concentrations) in quadruplicate.
1 mL aliquots of 2×10e6 MT-4 cells are pre-infected for 1 and 3 hrs respectively, @37° C. with 25 μL (MT4) or of either cell growth medium (mock-infected) or a fresh 1:250 dilution of an HIV-IIIb concentrated ABI stock (0.004 m.o.i. for MT4 cells). Infected and uninfected cells are diluted in cell growth medium and 35 uL of 2000 (for MT4) cells is added to each well of the assay plates.
Assay plates were then incubated in a 37° C. incubator. After 5 days of incubation, 25 μl of 2× concentrated CellTiter-Glo™ Reagent (catalog #G7573, Promega Biosciences, Inc., Madison, Wis.) was added to each well of the assay plate. Cell lysis was carried out by incubating at room temperature for 2-3 min and then chemiluminescence was read using the Envision reader (PerkinElmer).

SMILES	EC50 [nM]
Cc1cc2cc(F)c(F)cc2c(-c2ccc3c4c(ccnc24)CCO3)c1[C@H](OC(C)(C)C)C(=O)O [Compound 108, (S)-2-tert-Butoxy-2-((R)-1-(2,3-dihydropyrano[4,3,2-de]quinolin-7-yl)-6,7-difluoro-3-methylnaphthalen-2-yl)acetic acid]	28

Same assay, conditions: Human immunodeficiency virus 1, IIIB, MT4, 120 h, MT-4 cells infected with HIV-IIIb (0.004 m.o.i.), 5 days of incubation, CellTiter-Glo chemiluminescence readout; read-out: EC50

SMILES	EC50 [nM]
Cc1ccc2cc(C)c(C(OC(C)(C)C)C(=O)O)c(-c3ccc(Cl)cc3)c2c1 (stereo not shown) [Compound 78, 2-tert-Butoxy-2-(1-(4-chlorophenyl)-3,7-dimethylnaphthalen-2-yl)acetic acid]	300
Cc1cc2c(F)cccc2c(-c2ccc(Cl)cc2)c1C(OC(C)(C)C)C(=O)O (stereo not shown) [Compound 46, 2-tert-Butoxy-2-(1-(4-chlorophenyl)-5-fluoro-3-methylnaphthalen-2-yl)acetic acid]	1400
Cc1cc2c(Br)cccc2c(-c2ccc(Cl)cc2)c1C(OC(C)(C)C)C(=O)O (stereo not shown) [Compound 37, 2-(5-Bromo-1-(4-chlorophenyl)-3-methylnaphthalen-2-yl)-2-tert-butoxyacetic acid]	1200
Cc1cc2cc(C(C)C)c(F)cc2c(-c2ccc3c4c(ccnc24)CCO3)c1[C@H](OC(C)(C)C)C(=O)O (atropisomer, axis not shown) [Compound 167]	29000
Cc1cc2ccccc2c(C2=CCC3(CC2)CC3)c1[C@H](OC(C)(C)C)C(=O)O [Compound 15, (S)-2-tert-Butoxy-2-(3-methyl-1-(spiro[2.5]oct-5-en-6-yl)naphthalen-2-yl)acetic acid]	15
Cc1cc2c(Cl)c(C)ccc2c(-c2ccc3c4c(ccnc24)CCO3)c1[C@H](OC(C)(C)C)C(=O)O (atropisomer, axis not shown) [Compound 151]	850
Cc1cc2ccc(CCC(C)(C)O)cc2c(-c2ccc(Cl)cc2)c1C(OC(C)(C)C)C(=O)O (stereo not shown) [Compound 89, 2-tert-Butoxy-2-(1-(4-chlorophenyl)-7-(3-hydroxy-3-methylbutyl)-3-methylnaphthalen-2-yl)acetic acid]	280
Cc1cc2ccccc2c(-c2ccc(F)c3cccnc23)c1[C@H](OC(C)(C)C)C(=O)O [Compound 10, (2S)-2-tert-Butoxy-2-(1-(5-fluoroquinolin-8-yl)-3-methylnaphthalen-2-yl)acetic acid]	36000
COc1cccc2c(-c3ccc(Cl)cc3)c(C(OC(C)(C)C)C(=O)O)c(C)cc12 (stereo not shown) [Compound 34, tert-Butoxy-[1-(4-chloro-phenyl)-5-methoxy-3-methyl-naphthalen-2-yl]-acetic acid]	350
Cc1cc2cc(-c3cncnc3)ccc2c(-c2ccc(Cl)cc2)c1[C@H](OC(C)(C)C)C(=O)O [Compound 55, (S)-2-tert-Butoxy-2-(1-(4-chlorophenyl)-3-methyl-6-(pyrimidin-5-yl)naphthalen-2-yl)acetic acid]	54
Cc1cc2ccccc2c(-c2ccc3c4c2NCCC4CCO3)c1[C@H](OC(C)(C)C)C(=O)O (stereo partly drawn) [Compound 20, (2S)-2-tert-Butoxy-2-(1-((7R)-2,3,3a,4,5,6-hexahydropyrano[4,3,2de]quinolin-7-yl)-3-methylnaphthalen-2-yl)acetic acid]	93
CCc1ccc2cc(C)c(C(OC(C)(C)C)C(=O)O)c(-c3ccc(Cl)cc3)c2c1 (stereo not shown) [Compound 93, 2-tert-Butoxy-2-(1-(4-chlorophenyl)-7-ethyl-3-methylnaphthalen-2-yl)acetic acid]	86
Cc1c([C@H](OC(C)(C)C)C(=O)O)c(-c2ccc(Cl)cc2)c2ccccc2c1Br [Compound 150B, (S)-2-(4-bromo-1-(4-chlorophenyl)-3-methylnaphthalen-2-yl)-2-tert-butoxyacetic acid]	260
CC(C)(C)O[C@H](C(=O)O)c1c(COc2cccnc2)cc2ccccc2c1-c1ccc(Cl)cc1 [Compound 25, (S)-2-tert-Butoxy-2-(1-(4-chlorophenyl)-3-((pyridin-3-yloxy)methyl)naphthalen-2-yl)acetic acid]	26000
Cc1ccc2ccc(F)c(-c3c([C@H](OC(C)(C)C)C(=O)O)c(C)cc4ccccc34)c2n1 [Compound 17, (S)-2-(tert-Butoxy)-2-((S)-1-(7-fluoro-2-methylquinolin-8-yl)-3-methylnaphthalen-2-yl)acetic acid]	7700
Cc1cc2cc(Cl)ccc2c(-c2ccc(Cl)cc2)c1C(OC(C)(C)C)C(=O)O (racemic) [Compound 67, 2-tert-Butoxy-2-(6-chloro-1-(4-chlorophenyl)-3-methylnaphthalen-2-yl)acetic acid]	290
Cc1cc2cc(-c3cccnc3)ccc2c(-c2ccc(Cl)cc2)c1[C@H](OC(C)(C)C)C(=O)O [Compound 54, (S)-2-tert-Butoxy-2-(1-(4-chlorophenyl)-3-methyl-6-(pyridin-3-yl)naphthalen-2-yl)acetic acid]	55
Cc1c([C@@H](OC(C)(C)C)C(=O)O)c(-c2ccc(Cl)cc2)c2ccccc2c1Br [Compound 150A, (R)-2-(4-Bromo-1-(4-chlorophenyl)-3-methylnaphthalen-2-yl)-2-tert-butoxyacetic acid]	29200
CCc1c(C)c(C(OC(C)(C)C)C(=O)O)c(-c2ccc(Cl)cc2)c2ccccc12 (stereo not shown) [Compound 129, 2-tert-Butoxy-2-(1-(4-chlorophenyl)-4-ethyl-3-methylnaphthalen-2-yl)acetic acid]	170

Same assay, conditions: MT-4 cells infected with HIV-IIIb (0.004 m.o.i.), 5 days of incubation, CellTiter-Glo chemiluminescence readout; read-out: EC50

SMILES	EC50 [nM]
Cc1cc2cc(F)c(F)cc2c(-c2ccc3c4c(ccnc24)CCO3)c1[C@@H](OC(C)(C)C)C(=O)O (atropisomer, axis not shown) [Compound 173]	3200
Cc1cc2c(F)c(Cl)ccc2c(-c2ccc3c4c(ccnc24)CCO3)c1[C@H](OC(C)(C)C)C(=O)O [Compound 115, (S)-2-tert-Butoxy-2-((R)-6-chloro-1-(2,3-dihydropyrano[4,3,2-de]quinolin-7-yl)-5-fluoro-3-methylnaphthalen-2-yl)acetic acid]	37
Cc1cc2cc(F)ccc2c(-c2ccc3c4c(ccnc24)CCO3)c1C(OC(C)(C)C)C(=O)O (stereo not shown) [Compound 162]	1400
Cc1cc2c(Cl)cccc2c(-c2ccc3c4c(ccnc24)CCO3)c1C(OC(C)(C)C)C(=O)O [Compound 47, 2-tert-Butoxy-2-((R)-5-chloro-1-(2,3-dihydropyrano[4,3,2-de]quinolin-7-yl)-3-methylnaphthalen-2-yl)acetic acid]	110
Cc1cc2cc(Cl)c(F)cc2c(-c2ccc3c4c(ccnc24)CCO3)c1[C@H](OC(C)(C)C)C(=O)O [Compound 101, (S)-2-tert-Butoxy-2-((R)-6-chloro-1-(2,3-dihydropyrano[4,3,2-de]quinolin-7-yl)-7-fluoro-3-methylnaphthalen-2-yl)acetic acid]	41
Cc1cc2c(Cl)c(C)ccc2c(-c2ccc3c4c(ccnc24)CCO3)c1[C@H](OC(C)(C)C)C(=O)O [Compound 116, (S)-2-tert-Butoxy-2-((R)-5-chloro-1-(2,3-dihydropyrano[4,3,2-de]quinolin-7-yl)-3,6-dimethylnaphthalen-2-yl)acetic acid]	16
CCC(C)(C)O[C@H](C(=O)O)c1c(C)cc2ccccc2c1-c1ccc2c3c(ccnc13)CCO2 [Compound 185, (S)-2-((R)-1-(2,3-dihydropyrano[4,3,2-de]quinolin-7-yl)-3-methylnaphthalen-2-yl)-2-(tert-pentyloxy)acetic acid]	24
Cc1cc2c(C(N)=O)cc(F)cc2c(-c2ccc3c4c(ccnc24)CCO3)c1[C@H](OC(C)(C)C)C(=O)O [Compound 113B, (S)-2-tert-Butoxy-2-((R)-5-carbamoyl-1-(2,3-dihydropyrano[4,3,2-de]quinolin-7-yl)-7-fluoro-3-methylnaphthalen-2-yl)acetic acid]	460
Cc1cc2cc(F)ccc2c(-c2ccc3c4c(ccnc24)CCO3)c1C(OC(C)(C)C)C(=O)O [Compound 43, 2-tert-butoxy-2-((R)-1-(2,3-dihydropyrano[4,3,2-de]quinolin-7-yl)-6-fluoro-3-methylnaphthalen-2-yl)acetic acid]	22
Cc1cc2ccc(F)cc2c(-c2ccc3c4c(ccnc24)CCO3)c1[C@H](OC(C)(C)C)C(=O)O (racemic) [Compound 123, (±)-(2S)-2-tert-Butoxy-2-((R)-1-(2,3-dihydropyrano[4,3,2-de]quinolin-7-yl)-7-fluoro-3-methylnaphthalen-2-yl)acetic acid]	24
Cc1cc2c(C#N)cc(F)cc2c(-c2ccc3c4c(ccnc24)CCO3)c1[C@H](OC(C)(C)C)C(=O)O [Compound 113A, (S)-2-tert-Butoxy-2-((R)-5-cyano-1-(2,3-dihydropyrano[4,3,2-de]quinolin-7-yl)-7-fluoro-3-methylnaphthalen-2-yl)acetic acid]	910
Cc1cc2ccccc2c(-c2ccc(F)c3cccnc23)c1[C@H](OC(C)(C)C)C(=O)O [Compound 160]	36000
Cc1cc2ccccc2c(C2=CC(C)(C)CCC2=O)c1[C@H](OC(C)(C)C)C(=O)O [Compound 157]	10000
Cc1cc2cc(C(N)=O)c(F)cc2c(-c2ccc3c4c(ccnc24)CCO3)c1[C@H](OC(C)(C)C)C(=O)O [Compound 106B, (S)-2-tert-Butoxy-2-((R)-6-carbamoyl-1-(2,3-dihydropyrano[4,3,2-de]quinolin-7-yl)-7-fluoro-3-methylnaphthalen-2-yl)acetic acid]	91

Reference: patent publication US9102614B2, “Naphth-2-ylacetic acid derivatives to treat AIDS” (Gilead Sciences, Inc., priority 2010, dated 2015)
